Measurements: patent publication US9809598B2 (Merck Patent GmbH, priority 2014, dated 2017)

Legend:
[1] = biological target: T1, PARP-1 (Homo sapiens, UniProt P09874); test: PARP-1 autoparsylation assay (HTRF); format: biochemical; conditions: His-tagged Parp-1, autoparsylation HTRF
T1 construct: purchased Enzo Life Sciences GmbH, Lörrach, Germany
How it was run: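 HTRF emission ratio reports biotin-ADP-ribose self-transfer onto His-tagged PARP-1, with biotinylated NAD/NAD as co-substrate, sensed via cryptate anti-His and Xlent-streptavidin.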

[2] = biological target: T2, TNKS2 (Homo sapiens, UniProt Q9H2K2); test: TNKS2 activity ELISA (autoparsylation assay); format: biochemical; conditions: GST-tagged Tnks-2 (873-1166 aa); read-out: IC50 [M] TNKS2 ELISA
T2 construct: GST-tagged Tnks-2 (873-1166 aa, prepared in-house); made in house
How it was run: (§1)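 Autoparsylation ELISA: biotinylated NAD serves as co-substrate for plate-bound GST-TNKS1/TNKS2, incubated with test compounds. Readout is HRP luminescence after streptavidin-HRP binding, referenced to the no-inhibitor reaction, from which IC50 values are derived.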

[3] = biological target: T3, TNKS1 (Homo sapiens, UniProt O95271); test: TNKS1 activity ELISA (autoparsylation assay); format: biochemical; conditions: GST-tagged Tnks-1 (1023-1327 aa)
T3 construct: GST-tagged Tnks-1 (1023-1327 aa, prepared in-house); made in house
How it was run: as §1

[4] = test system: Tankyrases; conditions: read-out: EC50 [M] TNKS cellular assay; DLD1 cells, 24 hours, Axin2 increase

T1 sequence (P09874 whole entry): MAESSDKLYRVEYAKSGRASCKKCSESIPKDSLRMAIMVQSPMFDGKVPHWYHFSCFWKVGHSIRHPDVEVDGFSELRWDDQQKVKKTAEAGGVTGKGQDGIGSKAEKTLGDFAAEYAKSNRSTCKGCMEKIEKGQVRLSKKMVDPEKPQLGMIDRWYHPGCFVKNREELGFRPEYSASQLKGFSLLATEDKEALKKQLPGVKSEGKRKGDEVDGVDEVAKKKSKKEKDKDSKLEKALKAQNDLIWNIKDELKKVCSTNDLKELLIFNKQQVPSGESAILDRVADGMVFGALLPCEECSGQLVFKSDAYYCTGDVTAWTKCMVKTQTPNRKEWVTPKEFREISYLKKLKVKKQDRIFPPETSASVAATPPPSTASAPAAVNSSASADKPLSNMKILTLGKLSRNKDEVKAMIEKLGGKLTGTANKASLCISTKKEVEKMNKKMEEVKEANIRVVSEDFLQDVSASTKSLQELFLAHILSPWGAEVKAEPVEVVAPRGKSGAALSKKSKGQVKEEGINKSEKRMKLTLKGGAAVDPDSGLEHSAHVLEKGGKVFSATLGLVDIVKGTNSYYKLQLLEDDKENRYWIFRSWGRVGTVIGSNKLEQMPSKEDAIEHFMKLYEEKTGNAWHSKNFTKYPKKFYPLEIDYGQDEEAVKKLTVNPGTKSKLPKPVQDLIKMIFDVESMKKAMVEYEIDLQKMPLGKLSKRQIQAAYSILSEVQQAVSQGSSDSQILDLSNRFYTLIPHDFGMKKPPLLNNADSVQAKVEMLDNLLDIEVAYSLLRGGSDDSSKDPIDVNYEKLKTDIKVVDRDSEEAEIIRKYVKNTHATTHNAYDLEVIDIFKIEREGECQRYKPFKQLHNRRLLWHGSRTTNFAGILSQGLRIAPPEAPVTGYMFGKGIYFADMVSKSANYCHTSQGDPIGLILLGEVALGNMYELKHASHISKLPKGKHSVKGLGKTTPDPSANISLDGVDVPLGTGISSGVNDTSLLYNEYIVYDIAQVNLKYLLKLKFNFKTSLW
T3 sequence (O95271 1023-1327): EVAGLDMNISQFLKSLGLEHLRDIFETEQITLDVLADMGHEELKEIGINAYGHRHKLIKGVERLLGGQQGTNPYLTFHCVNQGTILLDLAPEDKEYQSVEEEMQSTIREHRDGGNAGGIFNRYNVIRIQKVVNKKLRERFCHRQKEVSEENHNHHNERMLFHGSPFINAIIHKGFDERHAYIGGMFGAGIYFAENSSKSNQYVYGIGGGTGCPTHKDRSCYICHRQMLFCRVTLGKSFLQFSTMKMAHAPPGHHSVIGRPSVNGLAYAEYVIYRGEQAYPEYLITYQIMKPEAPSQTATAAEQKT
T2 sequence (Q9H2K2 873-1166): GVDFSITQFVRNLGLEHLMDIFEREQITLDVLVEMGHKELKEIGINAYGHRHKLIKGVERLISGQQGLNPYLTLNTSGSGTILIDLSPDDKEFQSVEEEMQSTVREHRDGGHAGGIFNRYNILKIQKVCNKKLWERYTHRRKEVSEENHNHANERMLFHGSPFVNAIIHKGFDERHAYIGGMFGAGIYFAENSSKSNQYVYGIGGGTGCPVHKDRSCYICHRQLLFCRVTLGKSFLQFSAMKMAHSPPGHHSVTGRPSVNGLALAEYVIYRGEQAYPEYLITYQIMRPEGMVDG

Row | SMILES | IC50 [1] | IC50 [2] | IC50 [3] | EC50 [4]
1 | Nc1ncc(C2CCN(C(=O)CCCc3nn4cc(F)cc4c(=O)[nH]3)CC2)cc1-c1ncccn1 [Compound C172, 2-[4-(6-Amino-5-pyrimidin-2-yl-3′,4′,5′,6′-tetrahydro-2′H-[3,4′]bipyridinyl-1′-yl)-4-oxo-butyl]-6-fluoro-3H-pyrrolo[2,1-f][1,2,4]triazin-4-one] | 2.5 µM | 5.3e-10 M | 0.00061 µM | 6.8e-09 M
2 | O=C(CCCc1nn2cc(F)cc2c(=O)[nH]1)N1CCC(c2nnc(-c3ccccc3)o2)CC1 [Compound C173, 6-Fluoro-2-{4-oxo-4-[4-(5-phenyl-[1,3,4]oxadiazol-2-yl)-piperidin-1-yl]-butyl}-3H-pyrrolo[2,1-f][1,2,4]triazin-4-one] | 3.2 µM | 1.4e-08 M | 0.015 µM | 8.5e-08 M
3 | N#Cc1ccc(OC2CCN(C(=O)CCCc3nn4cc(F)cc4c(=O)[nH]3)CC2)cc1 [Compound C174, 4-{1-[4-(6-Fluoro-4-oxo-3,4-dihydro-pyrrolo[2,1-f][1,2,4]triazin-2-yl)-butyryl]-piperidin-4-yloxy}-benzonitrile] | 0.27 µM | 4.9e-08 M | 0.064 µM | 7.8e-07 M
4 | O=C(c1ccc(F)cc1)C1CCN(C(=O)CCCc2nn3cc(F)cc3c(=O)[nH]2)CC1 [Compound C175, 6-Fluoro-2-{4-[4-(4-fluoro-benzoyl)-piperidin-1-yl]-4-oxo-butyl}-3H-pyrrolo[2,1-f][1,2,4]triazin-4-one] | 4.9 µM | 8.1e-10 M | 0.00047 µM | 3.7e-08 M
5 | CC(C)(O)c1ccc(C(=O)C2CCN(C(=O)CCCc3nn4cc(F)cc4c(=O)[nH]3)CC2)cc1 [Compound C177, 6-Fluoro-2-(4-{4-[4-(1-hydroxy-1-methyl-ethyl)-benzoyl]-piperidin-1-yl}-4-oxo-butyl)-3H-pyrrolo[2,1-f][1,2,4]triazin-4-one] | 8 µM | 4.8e-09 M | 0.0071 µM | 6.7e-08 M
6 | COc1ccc(C(=O)C2CCN(C(=O)CCCc3nc4c(ccn4C)c(=O)[nH]3)CC2)cc1F [Compound C180, 2-{4-[4-(3-Fluoro-4-methoxy-benzoyl)-piperidin-1-yl]-4-oxo-butyl}-7-methyl-3,7-dihydro-pyrrolo[2,3-d]pyrimidin-4-one] | 1.9 µM | < 1e-10 M | 0.00018 µM | 3.3e-09 M
7 | COc1ccc(C(=O)C2CCN(C(=O)CCCc3nc4c(ccn4C)c(=O)[nH]3)CC2)cn1 [Compound C181, 2-{4-[4-(6-Methoxy-pyridine-3-carbonyl)-piperidin-1-yl]-4-oxo-butyl}-7-methyl-3,7-dihydro-pyrrolo[2,3-d]pyrimidin-4-one] | 2.3 µM | 2.4e-10 M | 0.00065 µM | 7.3e-09 M
8 | Cn1ccc2c(=O)[nH]c(CCCC(=O)N3CCC(c4cnc(N)c(C#N)c4)CC3)nc21 [Compound C182, 6-Amino-1′-[4-(7-methyl-4-oxo-4,7-dihydro-3H-pyrrolo[2,3-d]pyrimidin-2-yl)-butyryl]-1′,2′,3′,4′,5′,6′-hexahydro-[3,4′]bipyridinyl-5-carbonitrile] | 1.5 µM | 6.5e-10 M | 0.0013 µM | 2.4e-07 M
9 | Cn1ccc2c(=O)[nH]c(CCCC(=O)N3CCC(c4cnc(N)c(-c5ncccn5)c4)CC3)nc21 [Compound C183, 2-[4-(6-Amino-5-pyrimidin-2-yl-3′,4′,5′,6′-tetrahydro-2′H-[3,4′]bipyridinyl-1′-yl)-4-oxo-butyl]-7-methyl-3,7-dihydro-pyrrolo[2,3-d]pyrimidin-4-one] | 1.6 µM | 2.9e-10 M | 0.00054 µM | 1e-08 M
10 | Cn1ccc2c(=O)[nH]c(CCCC(=O)N3CCC(c4nnc(-c5ccccc5)o4)CC3)nc21 [Compound C184, 7-Methyl-2-{4-oxo-4-[4-(5-phenyl-[1,3,4]oxadiazol-2-yl)-piperidin-1-yl]-butyl}-3,7-dihydro-pyrrolo[2,3-d]pyrimidin-4-one] | 1.9 µM | 2.5e-09 M | 0.0047 µM | 4.7e-07 M
11 | Cn1ccc2c(=O)[nH]c(CCCC(=O)N3CCC(C(=O)c4ccc(F)cc4)CC3)nc21 [Compound C186, 2-{4-[4-(4-Fluoro-benzoyl)-piperidin-1-yl]-4-oxo-butyl}-7-methyl-3,7-dihydro-pyrrolo[2,3-d]pyrimidin-4-one] | 1.2 µM | 1.9e-09 M | 0.00041 µM | 1.4e-08 M
12 | Cn1cc(C(=O)C2CCN(C(=O)CCCc3nc4c(ccn4C)c(=O)[nH]3)CC2)cn1 [Compound C190, 7-Methyl-2-{4-[4-(1-methyl-1H-pyrazole-4-carbonyl)-piperidin-1-yl]-4-oxo-butyl}-3,7-dihydro-pyrrolo[2,3-d]pyrimidin-4-one] | 0.87 µM | 3.2e-10 M | 0.00071 µM | 1.9e-07 M
13 | COc1ccc(C(=O)C2CCN(C(=O)CCCc3nc4c(c(=O)[nH]3)COCC4)CC2)cc1F [Compound C192, 2-{4-[4-(3-Fluoro-4-methoxy-benzoyl)-piperidin-1-yl]-4-oxo-butyl}-3,5,7,8-tetrahydro-pyrano[4,3-d]pyrimidin-4-one] | 12 µM | 2.1e-09 M | 0.0056 µM | 4.9e-08 M
14 | COc1ccc(C(=O)C2CCN(C(=O)CCCc3nc4c(c(=O)[nH]3)COCC4)CC2)cn1 [Compound C193, 2-{4-[4-(6-Methoxy-pyridine-3-carbonyl)-piperidin-1-yl]-4-oxo-butyl}-3,5,7,8-tetrahydro-pyrano[4,3-d]pyrimidin-4-one] | 8 µM | 2.6e-09 M | 0.0074 µM | 1e-07 M
15 | N#Cc1cc(C2CCN(C(=O)CCCc3nc4c(c(=O)[nH]3)COCC4)CC2)cnc1N [Compound C194, 6-Amino-1′-[4-(4-oxo-3,5,7,8-tetrahydro-4H-pyrano[4,3-d]pyrimidin-2-yl)-butyryl]-1′,2′,3′,4′,5′,6′-hexahydro-[3,4′]bipyridinyl-5-carbonitrile] | 4.9 µM | 4.5e-09 M | 0.015 µM | 3.1e-06 M
16 | Nc1ncc(C2CCN(C(=O)CCCc3nc4c(c(=O)[nH]3)COCC4)CC2)cc1-c1ncccn1 [Compound C195, 2-[4-(6-Amino-5-pyrimidin-2-yl-3′,4′,5′,6′-tetrahydro-2′H-[3,4′]bipyridinyl-1′-yl)-4-oxo-butyl]-3,5,7,8-tetrahydro-pyrano[4,3-d]pyrimidin-4-one] | 3.3 µM | 6.8e-10 M | 0.0021 µM | 3.5e-08 M
17 | N#Cc1ccc(OC2CCN(C(=O)CCCc3nc4c(c(=O)[nH]3)COCC4)CC2)cc1 [Compound C197, 4-{1-[4-(4-Oxo-3,5,7,8-tetrahydro-4H-pyrano[4,3-d]pyrimidin-2-yl)-butyryl]-piperidin-4-yloxy}-benzonitrile] | 3.2 µM | 2.4e-07 M | 0.56 µM | 3.6e-06 M
18 | O=C(c1ccc(F)cc1)C1CCN(C(=O)CCCc2nc3c(c(=O)[nH]2)COCC3)CC1 [Compound C198, 2-{4-[4-(4-Fluoro-benzoyl)-piperidin-1-yl]-4-oxo-butyl}-3,5,7,8-tetrahydro-pyrano[4,3-d]pyrimidin-4-one] | 5.2 µM | 4e-09 M | 0.012 µM | 7.5e-08 M
19 | Cn1cc(C(=O)C2CCN(C(=O)CCCc3nc4c(c(=O)[nH]3)COCC4)CC2)cn1 [Compound C202, 2-{4-[4-(1-Methyl-1H-pyrazole-4-carbonyl)-piperidin-1-yl]-4-oxo-butyl}-3,5,7,8-tetrahydro-pyrano[4,3-d]pyrimidin-4-one] | 18 µM | 3.1e-09 M | 0.0081 µM | 2.2e-06 M
20 | Cc1cc2c(=O)[nH]c(CCCC(=O)N3CCC(C(=O)c4cnn(C)c4)CC3)cn2n1 [Compound C209, 2-Methyl-6-{4-[4-(1-methyl-1H-pyrazole-4-carbonyl)-piperidin-1-yl]-4-oxo-butyl}-5H-pyrazolo[1,5-a]pyrazin-4-one] | 8.5 µM | 7.9e-10 M | 0.00076 µM | 1e-08 M
21 | CC(C)n1cc(C(=O)C2CCN(C(=O)CCCc3cn4cccc4c(=O)[nH]3)CC2)cn1 [Compound C210, 3-{4-[4-(1-Isopropyl-1H-pyrazole-4-carbonyl)-piperidin-1-yl]-4-oxo-butyl}-2H-pyrrolo[1,2-a]pyrazin-1-one] | 7.5 µM | 3.2e-10 M | 0.00038 µM | 3.6e-09 M
22 | CCn1cc(C(=O)C2CCN(C(=O)CCCc3nc4c(cnn4C)c(=O)[nH]3)CC2)cn1 [Compound C213, 6-{4-[4-(1-Ethyl-1H-pyrazole-4-carbonyl)-piperidin-1-yl]-4-oxo-butyl}-1-methyl-1,5-dihydro-pyrazolo[3,4-d]pyrimidin-4-one] | 11 µM | 5.2e-10 M | 0.0012 µM | 8.6e-08 M
23 | CCn1cc(C(=O)C2CCN(C(=O)CCCc3nn4cc(F)cc4c(=O)[nH]3)CC2)cn1 [Compound C215, 2-{4-[4-(1-Ethyl-1H-pyrazole-4-carbonyl)-piperidin-1-yl]-4-oxo-butyl}-6-fluoro-3H-pyrrolo[2,1-f][1,2,4]triazin-4-one] | 5 µM | 1.4e-09 M | 0.0015 µM | 1.8e-08 M
24 | CCn1cc(C(=O)C2CCN(C(=O)CCCc3nc4c(C)scc4c(=O)[nH]3)CC2)cn1 [Compound C216, 2-{4-[4-(1-Ethyl-1H-pyrazole-4-carbonyl)-piperidin-1-yl]-4-oxo-butyl}-7-methyl-3H-thieno[3,4-d]pyrimidin-4-one] | 1.5 µM | 1.3e-09 M | 0.0025 µM | 5.2e-08 M
